Reference: patent publication US20240076667A1, “APPLICATION OF ANTISENSE OLIGONUCLEOTIDE TARGETING PBX1 PROMOTER REGION G-QUADRUPLEX IN PREPARATION OF MEDICINE FOR TREATING MELANOMA” (JILIN UNIVERSITY, priority 2022, published 2024)

Test system: A375 melanoma cells
Assay: In vivo tumor growth experiment, A375 xenograft in nude mice
Experimental: In vivo tumor growth experiment: to evaluate the effect of PBX1 on growth of in vivo tumors, before inoculation, male nude mice of 6 weeks (BALB/C background) are randomly divided into designated groups (5 per group). 1×10^6 A375 melanoma cells are injected subcutaneously into the upper flank of the back of each mouse. After injection, the mice are administered with PDS drug for treatment for 21 days (once every two days), and after the mice are sacrificed, the tumor weight is measured.
Bioluminescent tumor cell tracking: in vivo whole-animal imaging, anesthetized mice are injected intraperitoneally with 3 mg of d-luciferin (MCE, USA). Luminescence data is collected on an IVIS system (Perkin Elmer, USA). For live tissue imaging, tissues are perfused with PBS, harvested, and incubated in PBS with 1 μg/ml-1d-luciferin. Data analysis is performed using an IVIS Image software package.

NCCOc1cc(C(=O)Nc2cc(OCCN)c3ccccc3n2)nc(C(=O)Nc2cc(OCCN)c3ccccc3n2)c1 [PDS, Pyridostatin]
growth of xenograft tumors (A375 subcutaneous, nude mice, treatment 21 days once every two days): remarkably inhibits | expression of PBX1 in xenograft tumors (qRT-PCR and IHC staining): downregulating
